Among the data in patent US12617773B2, “Azetidin-3-ylmethanol derivatives as CCR6 receptor modulators” (Idorsia Pharmaceuticals Ltd, priority 2020, dated 2026) are IC50 values, retold here.

Each structure is given as a SMILES string.

One experiment concerns the target T1, human CCR6 (Homo sapiens, UniProt P51684).
T1 construct: expressed in transfected cells; host or cells: HEK-293
T1 sequence (P51684 1-374): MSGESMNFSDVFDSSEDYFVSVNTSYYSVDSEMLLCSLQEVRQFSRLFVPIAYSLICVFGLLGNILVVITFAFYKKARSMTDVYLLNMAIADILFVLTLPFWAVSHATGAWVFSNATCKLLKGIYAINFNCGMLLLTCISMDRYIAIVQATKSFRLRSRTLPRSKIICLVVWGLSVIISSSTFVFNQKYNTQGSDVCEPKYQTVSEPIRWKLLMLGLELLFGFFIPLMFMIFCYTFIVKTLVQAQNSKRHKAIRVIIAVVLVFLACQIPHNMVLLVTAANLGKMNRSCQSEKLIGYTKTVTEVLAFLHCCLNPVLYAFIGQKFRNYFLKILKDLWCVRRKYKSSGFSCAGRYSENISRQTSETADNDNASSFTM
The experiment can be described thus: FLIPR assay (inhibition of CCL20-induced calcium signal). Type of experiment: cell-based. Particulars: FLIPR IC50 (nM), HEK-293 cells expressing human CCR6; mean values where determined several times. The method in brief:
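IC50 values come from baseline-corrected peak calcium fluorescence after agonist. The agonist was CCL20 at 10 nM final, added to engineered human CCR6 HEK-293 cells following a 30-min, room-temperature, dark preincubation with serially diluted compound. Readings were taken in a fluorometric imaging plate reader.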
In the case of `CCc1ccc([C@](O)(c2cncc(N3CC4CC(C3)O4)c2)C2(C)CN(C)C2)cc1` [Example 243], the half-inhibitory concentration (IC50) (as a rule, the point on the concentration scale where inhibition reaches its midpoint) came to 211 nM.

The experiment is the same for the next values; noted with them: HEK-293 cells expressing human CCR6; mean values where determined several times; read-out: FLIPR IC50.
Regarding `CC(C)c1ccc([C@](O)(c2cncc(N3CC(C(F)(F)F)CC3=O)c2)C2(C)CN(C)C2)cc1` (stereo partly shown) [Example 219], the half-inhibitory concentration (IC50) worked out at 135 nM.
As to `COCCC1CCN(c2cncc([C@@](O)(c3ccc(C(C)C)cc3)C3(C)CN(C)C3)c2)C1=O` (stereo partly shown) [Example 220], the IC50 came to 214 nM.
The same measure, in the same setting: the same measure for `COCCC1CC(=O)N(c2cncc([C@@](O)(c3ccc(C(C)C)cc3)C3(C)CN(C)C3)c2)C1` (stereo partly shown) [Example 221]: 350 nM.
Still for that read-out and setting: the same measure for `CC(C)c1ccc([C@](O)(c2cnnc(N3CCCC3=O)c2)C2(C)CN(C)C2)cc1` [Example 222, 1-{5-[(R)-(1,3-Dimethyl-azetidin-3-yl)-hydroxy-(4-isopropyl-phenyl)-methyl]-pyridazin-3-yl}-pyrrolidin-2-one]: 164 nM.
On the same count and under the same terms, the result for `CC(C)c1ccc(C(O)(c2cncc(N3CC[C@H](C(C)C)C3)c2)C2(C)CN(C)C2)cc1` (stereo partly drawn) [Example 223, (1,3-Dimethyl-azetidin-3-yl)-(4-isopropyl-phenyl)-[5-((R)-3-isopropyl-pyrrolidin-1-yl)-pyridin-3-yl]-methanol] reads 29 nM; that for `CC(C)c1ccc([C@](O)(c2cncc(N3C[C@@H](C)O[C@@H](C)C3)c2)C2(C)CN(C)C2)cc1` [Example 224], 48.5 nM; that for `CC(C)c1ccc([C@](O)(c2cncc(N3C[C@H](C)O[C@@H](C)C3)c2)C2(C)CN(C)C2)cc1` [Example 228], 44.6 nM.
For `CC(C)c1ccc([C@](O)(c2cncc(N3C[C@@H](C)O[C@H](C)C3)c2)C2(C)CN(C)C2)cc1` [Example 229], the concentration for half-maximal inhibition (IC50) amounted to 59.1 nM.
Regarding `Cc1noc(C2CCN(c3cncc([C@@](O)(c4ccc(C(C)C)cc4)C4(C)CN(C)C4)c3)C2)n1` (stereo partly shown) [Example 230], the IC50 came out at 36.7 nM.
Turning to `Cc1csc(C2CCN(c3cncc([C@@](O)(c4ccc(C(C)C)cc4)C4(C)CN(C)C4)c3)C2)n1` (stereo partly shown) [Example 231], the IC50 came out at 14.9 nM.
Same read-out and setting: the result for `CC(C)c1ccc([C@](O)(c2cncc(N3CCC(c4ccccc4)C3)c2)C2(C)CN(C)C2)cc1` (stereo partly shown) [Example 232] reads 46.7 nM; that for `CC(C)c1ccc([C@](O)(c2cncc(N3CCC(C)(C)C3)c2)C2(C)CN(C)C2)cc1` [Example 233], 29.7 nM; that for `CC(C)c1ccc([C@](O)(c2cncc(N3C[C@@H]4C[C@H]3CO4)c2)C2(C)CN(C)C2)cc1` [Example 234], 123 nM.
Consider `CC(C)c1ccc([C@](O)(c2cncc(N3CC(F)(F)OC(F)(F)C3)c2)C2(C)CN(C)C2)cc1` [Example 235], for which the IC50 amounted to 23.4 nM.
As for `COC[C@H]1CN(c2cncc([C@@](O)(c3ccc(C(C)C)cc3)C3(C)CN(C)C3)c2)CCO1` [Example 236], the IC50 worked out at 210 nM.
Still for that read-out and setting: the result for `COC[C@@H]1CN(c2cncc([C@@](O)(c3ccc(C(C)C)cc3)C3(C)CN(C)C3)c2)CCO1` [Example 237] reads 217 nM; that for `CC(C)c1ccc([C@](O)(c2cncc(N3CCC(C(F)(F)F)C3)c2)C2(C)CN(C)C2)cc1` (stereo partly shown) [Example 238], 22.4 nM; that for `CC(C)c1ccc([C@](O)(c2cncc(N3C[C@H]4C[C@@H]3CO4)c2)C2(C)CN(C)C2)cc1` [Example 239], 283 nM.
Same read-out and setting: the same measure for `CC(C)c1ccc([C@](O)(c2cncc(N3C[C@H]4CC[C@@H](C3)O4)c2)C2(C)CN(C)C2)cc1` [Example 240]: 82.9 nM.
Take `CN1CC(C)([C@](O)(c2ccc(C3(C(F)(F)F)CC3)cc2)c2cncc(N3C[C@@H]4C[C@H]3CO4)c2)C1` [Example 241]: the IC50 came to 128 nM.
On the same count and under the same terms, the result for `CCc1ccc([C@](O)(c2cncc(N3CCCC3)c2)C2(C)CN(C)C2)cc1` [Example 242] reads 22.1 nM; that for `CCc1ccc([C@](O)(c2cncc(N3C[C@@H]4C[C@H]3CO4)c2)C2(C)CN(C)C2)cc1` [Example 244], 274 nM.
On the same count and under the same terms, the same measure for `CC(C)c1ccc([C@](O)(c2cncc(OCc3ccccc3)c2)C2(C)CN(C)C2)cc1` [Example 245, (R)-(5-Benzyloxy-pyridin-3-yl)-(1,3-dimethyl-azetidin-3-yl)-(4-isopropyl-phenyl)-methanol]: 26 nM.
On the same count and under the same terms, the result for `CC(C)c1ccc(C(O)(c2cncc(OCCc3ccccn3)c2)C2(C)CN(C)C2)cc1` (stereo not shown) [Example 246, (1,3-Dimethyl-azetidin-3-yl)-(4-isopropyl-phenyl)-[5-(2-pyridin-2-yl-ethoxy)-pyridin-3-yl]-methanol] reads 33.3 nM; that for `COCCOc1cncc(C(O)(c2ccc(C(C)C)cc2)C2(C)CN(C)C2)c1` (stereo not shown) [Example 247], 250 nM; that for `CC(C)c1ccc(C(O)(c2cncc(OCC3COC3)c2)C2(C)CN(C)C2)cc1` (stereo not shown) [Example 248], 247 nM.
With `CC(C)c1ccc([C@](O)(c2cncc(OCCCO)c2)C2(C)CN(C)C2)cc1` [Example 249], the IC50 worked out at 78.4 nM.
Regarding `CC(C)Oc1cncc([C@@](O)(c2ccc(C(C)C)cc2)C2(C)CN(C)C2)c1` [Example 250], the IC50 was 10.9 nM.
With `CC(C)c1ccc([C@](O)(c2cncc(OC3CCCCC3)c2)C2(C)CN(C)C2)cc1` [Example 251], the half-maximal inhibitory concentration (IC50) came out at 8.25 nM.
On to `CC(C)c1ccc([C@](O)(c2cncc(OCC(C)(C)O)c2)C2(C)CN(C)C2)cc1` [Example 252], for which the IC50 was 238 nM.
On to `COC1CCC(Oc2cncc([C@@](O)(c3ccc(C(C)C)cc3)C3(C)CN(C)C3)c2)C1` (stereo partly shown) [Example 253], for which the IC50 worked out at 13.1 nM.
For `CC(C)c1ccc([C@](O)(c2cncc(OCc3nc(C4CC4)no3)c2)C2(C)CN(C)C2)cc1` [Example 254], the IC50 is 19.3 nM.
The same measure, in the same setting: the result for `Cc1nc(C)n(CCOc2cncc([C@@](O)(c3ccc(C(C)C)cc3)C3(C)CN(C)C3)c2)n1` [Example 255] reads 774 nM; that for `CC(C)c1ccc([C@](O)(c2cncc(OCCC(C)(C)O)c2)C2(C)CN(C)C2)cc1` [Example 256], 57.8 nM.
For `COc1cncc([C@@](O)(c2ccc(C(C)C)cc2)C2(C)CN(C)C2)c1` [Example 257], the IC50 stood at 87.4 nM.
The same measure, in the same setting: the same measure for `CC(C)c1ccc([C@](O)(c2cncc(OCCOCc3ccccc3)c2)C2(C)CN(C)C2)cc1` [Example 258]: 15.5 nM; for `CC(C)c1ccc([C@](O)(c2cncc(OC3CCOCC3)c2)C2(C)CN(C)C2)cc1` [Example 259]: 56.7 nM; for `CC(C)c1ccc([C@](O)(c2cncc(OCCO)c2)C2(C)CN(C)C2)cc1` [Example 260, 2-{5-[(R)-(1,3-Dimethyl-azetidin-3-yl)-hydroxy-(4-isopropyl-phenyl)-methyl]-pyridin-3-yloxy}-ethanol]: 324 nM.
In the case of `CC(C)c1ccc([C@](O)(c2cncc(OC3CCC(O)CC3)c2)C2(C)CN(C)C2)cc1` (stereo partly drawn) [Example 261, 4-{5-[(R)-(1,3-Dimethyl-azetidin-3-yl)-hydroxy-(4-isopropyl-phenyl)-methyl]-pyridin-3-yloxy}-cyclohexanol], the IC50 was 206 nM.
Still for that read-out and setting: the same measure for `CC(C)c1ccc([C@](O)(c2cncc(OC3CCC(C)(O)CC3)c2)C2(C)CN(C)C2)cc1` (stereo partly drawn) [Example 262, 4-{5-[(R)-(1,3-Dimethyl-azetidin-3-yl)-hydroxy-(4-isopropyl-phenyl)-methyl]-pyridin-3-yloxy}-1-methyl-cyclohexanol]: 72.6 nM; for `CN1CC(C)(C(O)(c2ccc(OC(F)(F)F)cc2)c2cnc(Oc3ccccc3)nc2)C1` (stereo not shown) [Example 263]: 162 nM.
In the case of `CN1CC(C)(C(O)(c2ccc(OC(F)(F)F)cc2)c2ccc(OCc3ccccc3)nc2)C1` (stereo not shown) [Example 264], the IC50 is 167 nM.
On the same count and under the same terms, the same measure for `CN1CC(C)(C(O)(c2ccc(OC(F)(F)F)cc2)c2cncc(-n3cccn3)c2)C1` (stereo not shown) [Example 265]: 90.6 nM.
For `CN1CC(C)(C(O)(c2ccc(OC(F)(F)F)cc2)c2cnc(F)c(N3CCCC3)c2)C1` (stereo not shown) [Example 266, (1,3-Dimethyl-azetidin-3-yl)-(6-fluoro-5-pyrrolidin-1-yl-pyridin-3-yl)-(4-trifluoromethoxy-phenyl)-methanol], the IC50 was determined as 79.1 nM.
As to `CN1CC(C)(C(O)(c2ccc(OC(F)(F)F)cc2)c2cnc(C#N)c(N3CCCC3)c2)C1` (stereo not shown) [Example 267, 5-[(1,3-Dimethyl-azetidin-3-yl)-hydroxy-(4-trifluoromethoxy-phenyl)-methyl]-3-pyrrolidin-1-yl-pyridine-2-carbonitrile], the IC50 stood at 103 nM.
Regarding `CN1CC(C)(C(O)(c2ccc(OC(F)(F)F)cc2)c2ccc(OC3CCOCC3)nc2)C1` (stereo not shown) [Example 268, (1,3-Dimethyl-azetidin-3-yl)-[6-(tetrahydro-pyran-4-yloxy)-pyridin-3-yl]-(4-trifluoromethoxy-phenyl)-methanol], the half-inhibitory concentration (IC50) turned out to be 99.3 nM.
On the same count and under the same terms, the same measure for `CN1CC(C)(C(O)(c2ccc(OC(F)(F)F)cc2)c2ccc(OCC3COC3)nc2)C1` (stereo not shown) [Example 269, (1,3-Dimethyl-azetidin-3-yl)-[6-(oxetan-3-ylmethoxy)-pyridin-3-yl]-(4-trifluoromethoxy-phenyl)-methanol]: 224 nM; for `Cc1csc(-c2cncc(C(O)(c3ccc(C(C)C)cc3)C3(C)CN(C)C3)c2)n1` (stereo not shown) [Example 270, (1,3-Dimethyl-azetidin-3-yl)-(4-isopropyl-phenyl)-[5-(4-methyl-thiazol-2-yl)-pyridin-3-yl]-methanol]: 27.4 nM.
